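Cells were grown in 96-well plates and exposed to each compound for 48 hours at five concentrations; endpoints were interpolated linearly between bracketing concentrations, or set to the highest concentration if not reached. Here, GI50 denotes the concentration required for 50% inhibition of growth.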 Activity calls are given as the source filed them. Cut-off read from the data, not from the text of the source: active = GI50 up to about 1.1 µM and inactive = higher.
Assays:
Test in all cases: DTP human tumour cell line panel, 48 h
Malme-3M = system: Malme-3M
NCI-H23 = system: NCI-H23
IGROV-1 = system: IGROV-1
OVCAR-4 = system: OVCAR-4
NCI-H522 = system: NCI-H522
HOP-62 = system: HOP-62
HOP-92 = system: HOP-92
OVCAR-8 = system: OVCAR-8
OVCAR-5 = system: OVCAR-5
HL-60 = system: HL-60
RPMI-8226 = system: RPMI-8226
LOX IMVI = system: LOX IMVI
U-251 = system: U-251
SK-OV-3 = system: SK-OV-3
K562 = system: K562
ACHN = system: ACHN
SK-MEL-2 = system: SK-MEL-2
EKVX = system: EKVX
SK-MEL-28 = system: SK-MEL-28
TK-10 = system: TK-10

Compound | GI50 (Malme-3M) | GI50 (NCI-H23) | GI50 (IGROV-1) | GI50 (OVCAR-4) | GI50 (NCI-H522) | GI50 (HOP-62) | GI50 (HOP-92) | GI50 (OVCAR-8) | GI50 (OVCAR-5) | GI50 (HL-60) | GI50 (RPMI-8226) | GI50 (LOX IMVI) | GI50 (U-251) | GI50 (SK-OV-3) | GI50 (K562) | GI50 (ACHN) | GI50 (SK-MEL-2) | GI50 (EKVX) | GI50 (SK-MEL-28) | GI50 (TK-10)
Cc1ccc(C(=O)OCC(C)C)cc1/N=N/N(C)C | > 100 µM (inactive) | 34.8 µM (inactive) | > 100 µM (inactive) | > 71.8 µM (inactive) | 35.2 µM (inactive) | 67.8 µM (inactive) | > 65 µM (inactive) | > 100 µM (inactive) | > 100 µM (inactive) | 34.2 µM (inactive) | 77.6 µM (inactive) | 31.1 µM (inactive) | 65.6 µM (inactive) | > 100 µM (inactive) | > 100 µM (inactive) | 54.8 µM (inactive) | > 100 µM (inactive) | > 100 µM (inactive) | > 71 µM (inactive) | > 100 µM (inactive)
Cc1ccc(/C(Cl)=C/C=C(C#N)C#N)cc1 | 3.85 µM (inactive) | 1.76 µM (inactive) | 3.59 µM (inactive) | 3.22 µM (inactive) | 1.98 µM (inactive) | 1.98 µM (inactive) | 3.26 µM (inactive) | 3.16 µM (inactive) | 2.6 µM (inactive) | 2 µM (inactive) | 2.35 µM (inactive) | 1.17 µM (inactive) | 4.18 µM (inactive) | 5.78 µM (inactive) | 0.817 µM (active) | 2.45 µM (inactive) | 6.32 µM (inactive) | 10.1 µM (inactive) | 2.14 µM (inactive) | 2.25 µM (inactive)
CC(C)(c1ccccc1)c1ccc(Oc2ccc(C#N)c(C#N)c2)cc1 | > 10 µM (inactive) | 25 µM (inactive) | > 10 µM (inactive) | 7.82 µM (inactive) | 9.06 µM (inactive) | > 10 µM (inactive) | 10.3 µM (inactive) | > 10 µM (inactive) | > 10 µM (inactive) | 20.5 µM (inactive) | 10.2 µM (inactive) | > 10 µM (inactive) | 99.8 µM (inactive) | > 10 µM (inactive) | 15 µM (inactive) | 33.8 µM (inactive) | > 10 µM (inactive) | 46.1 µM (inactive) | > 10 µM (inactive) | > 10 µM (inactive)
c1ccc2c(c1)Nc1nc3nonc3nc1N2 | > 100 µM (inactive) | > 100 µM (inactive) | > 100 µM (inactive) | 62.5 µM (inactive) | > 100 µM (inactive) | > 100 µM (inactive) | > 100 µM (inactive) | > 100 µM (inactive) | > 100 µM (inactive) | > 100 µM (inactive) | > 100 µM (inactive) | > 100 µM (inactive) | > 100 µM (inactive) | > 100 µM (inactive) | > 100 µM (inactive) | > 100 µM (inactive) | > 100 µM (inactive) | > 100 µM (inactive) | > 100 µM (inactive) | > 100 µM (inactive)
N#Cc1cc(N(CCCl)CCCl)c([N+](=O)[O-])cc1[N+](=O)[O-] | 60.8 µM (inactive) | > 100 µM (inactive) | > 100 µM (inactive) | > 100 µM (inactive) | 87.9 µM (inactive) | > 100 µM (inactive) | > 100 µM (inactive) | > 100 µM (inactive) | > 100 µM (inactive) | 22.3 µM (inactive) | 38.2 µM (inactive) | 98.2 µM (inactive) | > 100 µM (inactive) | > 100 µM (inactive) | > 100 µM (inactive) | 18.1 µM (inactive) | > 100 µM (inactive) | > 100 µM (inactive) | > 100 µM (inactive) | > 100 µM (inactive)
COc1cc(CC(C)N)ccc1O (stereo not given) | > 100 µM (inactive) | > 100 µM (inactive) | > 100 µM (inactive) | > 100 µM (inactive) | > 100 µM (inactive) | > 100 µM (inactive) | > 85.9 µM (inactive) | > 100 µM (inactive) | > 100 µM (inactive) | > 100 µM (inactive) | > 100 µM (inactive) | > 100 µM (inactive) | > 100 µM (inactive) | > 100 µM (inactive) | > 100 µM (inactive) | > 100 µM (inactive) | > 100 µM (inactive) | > 100 µM (inactive) | > 100 µM (inactive) | > 100 µM (inactive)

Reference: ChEMBL document CHEMBL1201862, “PubChem BioAssay data set” (2004)
